The target of assay [1] is T1, Recombinant STAT3 protein (STAT3 (G127-I722)) (Homo sapiens, UniProt P40763).
T1 construct: Recombinant STAT3 protein (STAT3 (G127-I722))
The assay can be described thus: STAT3 Fluorescence Polarization (FP) Assay. It is filed as binding. The conditions noted are these: STAT3 (G127-I722) 25 nM, probe 5-FAM-GpYLPQTV-NH2 2 nM, 45-minute incubation; read-out: STAT3 (FP assay IC50 class). Summed up:
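Read-out is fluorescence polarization (mP) after 45 min at room temperature, with IC50 fitted by nonlinear regression against log compound concentration. Mixture: 25 nM STAT3 (G127-I722), 2 nM 5-FAM-GpYLPQTV-NH2 phosphopeptide, 10 mM HEPES pH 7.4 buffer, 1% DMSO.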
On the technique in general: Fluorescence polarisation rises when a labelled molecule tumbles more slowly, as on binding a larger partner.

Assay [2] concerns the target T2, Recombinant STAT6 protein (STAT6 (W123-T658)) (Homo sapiens, UniProt P42226).
T2 construct: Recombinant STAT6 protein (STAT6 (W123-T658))
T2 sequence (P42226 123-658): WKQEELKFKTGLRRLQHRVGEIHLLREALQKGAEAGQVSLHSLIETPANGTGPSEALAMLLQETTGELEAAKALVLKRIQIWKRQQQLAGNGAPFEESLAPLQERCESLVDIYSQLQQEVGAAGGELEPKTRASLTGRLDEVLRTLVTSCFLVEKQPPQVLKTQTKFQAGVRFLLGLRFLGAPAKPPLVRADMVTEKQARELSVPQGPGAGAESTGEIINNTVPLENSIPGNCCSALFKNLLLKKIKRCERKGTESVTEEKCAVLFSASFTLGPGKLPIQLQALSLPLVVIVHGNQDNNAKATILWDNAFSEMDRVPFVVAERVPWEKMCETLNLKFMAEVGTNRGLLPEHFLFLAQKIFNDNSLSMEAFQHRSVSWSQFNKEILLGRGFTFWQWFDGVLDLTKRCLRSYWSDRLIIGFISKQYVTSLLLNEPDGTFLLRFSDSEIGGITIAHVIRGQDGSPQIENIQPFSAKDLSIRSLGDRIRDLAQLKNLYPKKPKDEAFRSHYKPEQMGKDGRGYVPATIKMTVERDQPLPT
Kind of assay: STAT6 Fluorescence Polarization (FP) Assay. It is filed as binding. The conditions noted are these: STAT6 (W123-T658) 250 nM, probe 5-FAM-Ap[…]-NH2 2 nM, 45-minute incubation; read-out: STAT6 (FP assay IC50 class). The method in brief: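 Probe displacement format: serially diluted compounds incubated 45 min at room temperature with 2 nM fluorescent phosphopeptide and 250 nM STAT6 (W123-T658) in pH 7.4 HEPES buffer, 1% DMSO final. Polarization signal plotted against log concentration, IC50 fitted by nonlinear regression.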

Some results are limits rather than exact numbers.

By IC50 is commonly meant the point on the concentration scale where inhibition reaches its midpoint.

T1 sequence (P40763 127-722): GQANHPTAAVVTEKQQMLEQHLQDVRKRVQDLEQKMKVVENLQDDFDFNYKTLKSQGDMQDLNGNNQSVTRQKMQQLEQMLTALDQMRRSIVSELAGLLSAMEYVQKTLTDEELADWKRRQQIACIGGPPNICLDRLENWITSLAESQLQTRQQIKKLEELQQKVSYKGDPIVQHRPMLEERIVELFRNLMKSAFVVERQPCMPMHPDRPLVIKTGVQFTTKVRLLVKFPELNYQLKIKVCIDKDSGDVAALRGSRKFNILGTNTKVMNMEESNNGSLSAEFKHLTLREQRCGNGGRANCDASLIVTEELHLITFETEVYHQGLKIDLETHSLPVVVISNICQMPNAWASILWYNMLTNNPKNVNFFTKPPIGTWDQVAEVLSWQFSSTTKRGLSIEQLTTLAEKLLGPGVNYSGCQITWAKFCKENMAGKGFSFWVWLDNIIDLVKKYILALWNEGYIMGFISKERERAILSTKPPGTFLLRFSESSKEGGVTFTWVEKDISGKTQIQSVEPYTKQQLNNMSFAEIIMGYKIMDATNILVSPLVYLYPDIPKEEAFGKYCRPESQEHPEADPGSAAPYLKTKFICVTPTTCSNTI

Turning to `O=C(N[C@H]1CCC[C@H]2CC[C@@H](C(=O)N3CC(c4cnccc4F)C3)N2C1=O)c1cc2cc(C(F)(F)P(=O)(O)O)ccc2s1` [Compound 762, (difluoro(2-(((3S,6S,9aS)-3-(3-(4-fluoropyridin-3-yl)azetidine-1-carbonyl)-5-oxooctahydro-1H-pyrrolo[1,2-a]azepin-6-yl)carbamoyl)benzo [b]thiophen-5-yl)methyl) phosphonic acid], the half-maximal inhibitory concentration (IC50) in assay [1] was under 0.1 µM; in assay [2], 0.3 to 3 µM.

For the molecule `CN1CCN(C(=O)[C@@H]2CC[C@@H]3CCC[C@H](NC(=O)c4cc5cc(C(F)P(=O)(O)O)ccc5s4)C(=O)N32)c2ccccc21` (stereo partly drawn) [Compound 763, (fluoro(2-(((3S,6S,9aS)-3-(4-methyl-1,2,3,4-tetrahydro-quinoxaline-1-carbonyl)-5-oxooctahydro-1H-pyrrolo[1,2-a]azepin-6-yl)carbamoyl)benzo [b]thiophen-5-yl)methyl) phosphonic acid], the half-maximal inhibitory concentration (IC50) in assay [1] lay in the range of 1 to 10 µM; in assay [2], 3 to 30 µM.

Take `COc1ncncc1C1CN(C(=O)[C@@H]2CC[C@@H]3CCC[C@H](NC(=O)c4cc5cc(C(F)P(=O)(O)O)ccc5s4)C(=O)N32)C1` (stereo partly drawn) [Compound 764, (fluoro(2-(((3S,6S,9aS)-3-(3-(4-methoxypyrimidin-5-yl)azetidine-1-carbonyl)-5-oxooctahydro-1H-pyrrolo[1,2-a]azepin-6-yl)carbamoyl)benzo [b]thiophen-5-yl)methyl) phosphonic acid]: the half-maximal inhibitory concentration (IC50) lay in the range of 0.1 to 1 µM in assay [1] and 3 to 30 µM in assay [2].

With `O=C(N[C@H]1CCC[C@H]2CC[C@@H](C(=O)N3CC(c4cnccc4N4CCC4)C3)N2C1=O)c1cc2cc(CP(=O)(O)O)ccc2s1` [Compound 765, ((2-(((3S,6S,9aS)-3-(3-(4-(azetidin-1-yl)pyridin-3-yl)azetidine-1-carbonyl)-5-oxooctahydro-1H-pyrrolo[1,2-a]azepin-6-yl)carbamoyl)benzo [b]thiophen-5-yl)methyl) phosphonic acid], the half-inhibitory concentration (IC50) in assay [1] was under 0.1 µM; in assay [2] it was 3 to 30 µM.

Take `COc1ccncc1C1CN(C(=O)[C@@H]2CC[C@@H]3C[C@H](C)C[C@H](NC(=O)c4cc5cc([C@H](F)P(=O)(O)O)ccc5s4)C(=O)N32)C1` [Compound 766, ((R)-fluoro(2-(((3S,6S,8R,9aR)-3-(3-(4-methoxypyridin-3-yl)azetidine-1-carbonyl)-8-methyl-5-oxooctahydro-1H-pyrrolo[1,2-a]azepin-6-yl)carbamoyl)benzo [b]thiophen-5-yl)methyl) phosphonic acid]: the IC50 in assay [1] was under 0.1 µM; in assay [2] it was 3 to 30 µM.

Regarding `COC1(c2nccn2C)CN(C(=O)[C@@H]2CC[C@@H]3CCC4(CC4)C[C@H](NC(=O)c4cc5cc(C(F)(F)P(=O)(O)O)ccc5s4)C(=O)N32)C1` [Compound 768, (difluoro(2-(((3′S,6′S,10a′S)-3′-(3-methoxy-3-(1-methyl-1H-imidazol-2-yl)azetidine-1-carbonyl)-5′-oxooctahydro-5′H-spiro[cyclopropane-1,8′-pyrrolo[1,2-a]azocin]-6′-yl)carbamoyl)benzo [b]thiophen-5-yl)methyl) phosphonic acid], the IC50 was in the range of 0.1 to 1 µM in assay [1] and 3 to 30 µM in assay [2].

For the molecule `Cc1cc(C2CN(C(=O)[C@@H]3CC[C@@H]4CCC[C@H](NC(=O)c5cc6cc(C(F)P(=O)(O)O)ccc6s5)C(=O)N43)C2)ccn1` (stereo partly drawn) [Compound 769, (fluoro(2-(((3S,6S,9aS)-3-(3-(2-methylpyridin-4-yl)azetidine-1-carbonyl)-5-oxooctahydro-1H-pyrrolo[1,2-a]azepin-6-yl)carbamoyl)benzo [b]thiophen-5-yl)methyl) phosphonic acid], the IC50 was under 0.1 µM in assay [1] and 3 to 30 µM in assay [2].

For `CC(=O)N1CCOC2(C1)CN(C(=O)[C@@H]1CC[C@@H]3CCC[C@H](NC(=O)c4cc5cc(C(F)P(=O)(O)O)ccc5s4)C(=O)N31)C2` (stereo partly drawn) [Compound 770, ((2-(((3S,6S,9aS)-3-(8-acetyl-5-oxa-2,8-diazaspiro[3.5]nonane-2-carbonyl)-5-oxooctahydro-1H-pyrrolo[1,2-a]azepin-6-yl)carbamoyl)benzo [b]thiophen-5-yl)fluoromethyl) phosphonic acid], the results for the half-maximal inhibitory concentration (IC50) in assay [1] and in assay [2] were 1 to 10 µM and 3 to 30 µM, respectively.

On to `O=C(N[C@H]1CCCCC[C@H]2CC[C@@H](C(=O)N3CC(C(=O)N4CCOCC4)C3)N2C1=O)c1cc2cc(C(F)(F)P(=O)(O)O)ccc2s1` [Compound 773, (difluoro(2-(((3S,6S,11aS)-3-(3-(morpholine-4-carbonyl)azetidine-1-carbonyl)-5-oxodecahydro-1H-pyrrolo[1,2-a]azonin-6-yl)carbamoyl)benzo [b]thiophen-5-yl)methyl) phosphonic acid], for which the half-inhibitory concentration (IC50) is 0.1 to 1 µM in assay [1] and over 30 µM in assay [2].

For the molecule `O=C(N[C@H]1CCCC[C@H]2CC[C@@H](C(=O)N3CC4(CC(=O)c5nccn54)C3)N2C1=O)c1cc2cc(C(F)(F)P(=O)(O)O)ccc2s1` [Compound 774, (difluoro(2-(((3S,6S,10aS)-5-oxo-3-(7′-oxo-6′,7′-dihydrospiro[azetidine-3,5′-pyrrolo[1,2-a]imidazole]-1-carbonyl)decahydropyrrolo[1,2-a]azocin-6-yl)carbamoyl)benzo [b]thiophen-5-yl)methyl) phosphonic acid], the IC50 in assay [1] is under 0.1 µM; in assay [2], 3 to 30 µM.

For the molecule `Cc1ncccc1C1CN(C(=O)[C@@H]2CC[C@@H]3CCC[C@H](NC(=O)c4cc5cc(C(F)(F)P(=O)(O)O)ccc5s4)C(=O)N32)C1` [Compound 775, (difluoro(2-(((3S,6S,9aS)-3-(3-(2-methylpyridin-3-yl)azetidine-1-carbonyl)-5-oxooctahydro-1H-pyrrolo[1,2-a]azepin-6-yl)carbamoyl)benzo [b]thiophen-5-yl)methyl) phosphonic acid], the values for the IC50 in assay [1] and in assay [2] were under 0.1 µM and 0.3 to 3 µM, respectively.

Take `N#CC1(c2ccccn2)CN(C(=O)[C@@H]2CC[C@@H]3CCC[C@H](NC(=O)c4cc5cc(C(F)(F)P(=O)(O)O)ccc5s4)C(=O)N32)C1` [Compound 776, ((2-(((3S,6S,9aS)-3-(3-cyano-3-(pyridin-2-yl)azetidine-1-carbonyl)-5-oxooctahydro-1H-pyrrolo[1,2-a]azepin-6-yl)carbamoyl)benzo [b]thiophen-5-yl)difluoromethyl) phosphonic acid]: the 50% inhibitory concentration (IC50) in assay [1] is under 0.1 µM; in assay [2], 0.3 to 3 µM.

Consider `COCC1(c2ccccc2)CN(C(=O)[C@@H]2CC[C@@H]3CCC[C@H](NC(=O)c4cc5cc(C(F)(F)P(=O)(O)O)ccc5s4)C(=O)N32)C1` [Compound 777, (difluoro(2-(((3S,6S,9aS)-3-(3-(methoxymethyl)-3-phenylazetidine-1-carbonyl)-5-oxooctahydro-1H-pyrrolo[1,2-a]azepin-6-yl)carbamoyl)benzo [b]thiophen-5-yl)methyl) phosphonic acid], for which the IC50 was under 0.1 µM in assay [1] and 0.3 to 3 µM in assay [2].

As for `Cc1ccccc1C1CN(C(=O)[C@@H]2CC[C@@H]3CCC[C@H](NC(=O)c4cc5cc(C(F)(F)P(=O)(O)O)ccc5s4)C(=O)N32)C1` [Compound 778, (difluoro(2-(((3S,6S,9aS)-5-oxo-3-(3-(o-tolyl)azetidine-1-carbonyl)octahydro-1H-pyrrolo[1,2-a]azepin-6-yl)carbamoyl)benzo [b]thiophen-5-yl)methyl) phosphonic acid], the 50% inhibitory concentration (IC50) in assay [1] was under 0.1 µM; in assay [2] it was 0.3 to 3 µM.

As for `Cn1cnnc1C1CN(C(=O)[C@@H]2CC[C@@H]3CCC[C@H](NC(=O)c4cc5cc(C(F)(F)P(=O)(O)O)ccc5s4)C(=O)N32)C1` [Compound 779, (difluoro(2-(((3S,6S,9aS)-3-(3-(4-methyl-4H-1,2,4-triazol-3-yl)azetidine-1-carbonyl)-5-oxooctahydro-1H-pyrrolo[1,2-a]azepin-6-yl)carbamoyl)benzo [b]thiophen-5-yl)methyl) phosphonic acid], the half-maximal inhibitory concentration (IC50) in assay [1] is under 0.1 µM; in assay [2], 3 to 30 µM.

In the case of `N#CC1CN(C(=O)[C@@H]2CC[C@@H]3CCC[C@H](NC(=O)c4cc5cc(C(F)(F)P(=O)(O)O)ccc5s4)C(=O)N32)C1` [Compound 780, ((2-(((3S,6S,9aS)-3-(3-cyanoazetidine-1-carbonyl)-5-oxooctahydro-1H-pyrrolo[1,2-a]azepin-6-yl)carbamoyl)benzo [b]thiophen-5-yl)difluoromethyl) phosphonic acid], the values for the half-inhibitory concentration (IC50) in assay [1] and in assay [2] were 0.1 to 1 µM and 0.3 to 3 µM, respectively.

The values above are taken from US20250215029A1 (Recludix Pharma, Inc., priority 2022, published 2025).
